From PubChem BioAssay (NCI)
Values joined by “and” are separate entries in the source; they are usually repeats but may differ in a detail not shown here. Equal values may be shown once.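 Briefly, cells in 96-well plates were exposed to five compound concentrations for 48 h, and endpoints were estimated by linear interpolation. Abbreviation: GI50, concentration required for 50% inhibition of growth. TGI: concentration producing complete growth inhibition.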

test system: MALME-3M melanoma; assay: NCI-60 cell line screen, 48 h

First: COc1cc2c(c3oc4c(O)cccc4c(=O)c13)CC(C(C)(O)CO)O2 (stereo unspecified)
Second: CCOC(=O)C(C)(C)Oc1ccc2c(-c3ccccc3)cc(=O)oc2c1
The TGI of the first is higher: over 100 µM for the first, 73.6 µM for the second.

Compared with `CC(=O)OC1OC([C@@H]2c3cccc(O)c3C(=O)c3c(O)cc(C)cc32)C(O)C(O)C1O` (stereo partly specified), `Cc1c(C(=O)C/C(=N/NC(=O)c2ccccc2O)C(=O)Nc2ccccc2C(C)C)[n+](=O)c2ccccc2n1[O-]` is higher in TGI: 0.0902 µM for the first, over 100 µM for the second.

First: CCCCCCCCCCCC(=O)OCCOCCOCCOCCOCCOCc1ccccc1
Second: O=C(CCNC12CC3CC(CC(C3)C1)C2)c1ccccc1
The TGI of the first is higher: over 100 µM for the first, 32.1 µM for the second.

`CCCC1C(=O)CCc2c(OC)ccc(OC)c21` (stereo unspecified) and `COC(=O)C1(C(C)C)CCc2c(OC)ccc(OC)c2C1=O` (stereo unspecified) cannot be ordered by TGI: over 100 µM for the first, over 100 µM for the second.

`O=C(CCc1nc(=S)[nH][nH]1)Nc1cc(Cl)c(Cl)cc1Cl` and `O=C(CCc1nc(=S)[nH][nH]1)Nc1ccc(Cl)c(Cl)c1` cannot be ordered by TGI: over 100 µM for the first, over 100 µM for the second.

First: CN1CCCCC1CCN1c2ccccc2Sc2ccc(Cl)cc21 (stereo unspecified)
Second: O=C(CC(=O)c1cccc2ccccc12)C(=O)Nc1ccc(Cl)cc1
The TGI of the first is lower: 4.25 µM for the first, over 100 µM for the second.

Going from `O=C(Nc1nc2ccc([N+](=O)[O-])cc2s1)C(=O)C(C1OC(=O)c2ccccc21)[N+](=O)[O-]` (stereo unspecified) to `COC(=O)c1ccccc1NC(=O)C(=O)Cc1nc2c3c(ccc2[nH]c1=O)C(=O)c1ccccc1C3=O`, the TGI falls from over 100 µM to 31 µM.

Compared with `FC(F)(F)c1cccc(Nc2nc(-c3ccccc3)nc3ncccc23)c1`, `O=C(O)CCC(NC(=O)c1ccc(Nc2nc3ccccc3nc2-c2cccs2)cc1)C(=O)O` (stereo unspecified) is higher in TGI: 28.7 µM for the first, over 100 µM for the second.

`Cc1ccc(S(=O)(=O)OC[C@@H]2CO2)cc1` and `Cc1cc(N(CCC#N)CCC#N)ccc1N=Nc1ccc(S(N)(=O)=O)cc1` cannot be ordered by TGI: over 100 µM for the first, over 100 µM for the second.

`COc1cc2cc(OC)c3cc4c(cc3c2c(OC)c1OC)OCO4` and `Cc1cc(NS(=O)(=O)c2ccc(Nc3c4ccccc4nc4c(C(=O)N5CCN(CCOS(C)(=O)=O)CC5)cccc34)cc2)no1` cannot be ordered by TGI: over 100 µM for the first, over 100 µM for the second.

Going from `C=CCO[C@H]1CO[C@H]2[C@@H]1OC[C@@H]2Oc1ccc(Nc2ccnc(Nc3ccc(O[C@H]4CO[C@H]5[C@@H]4OC[C@@H]5OCC=C)c(Cl)c3)n2)cc1Cl` to `CCN(CC)CCSc1c2ccccc2nc2cc(NCC(=O)Nc3ccccc3-c3ccccc3NC(=O)CNc3ccc4c(SCCN(CC)CC)c5ccccc5nc4c3)ccc12`, the TGI rises from 2.91 µM to over 100 µM.

`CC1(C(=O)O)CCC[C@@]2(C)C1CC[C@@]1(C)c3cocc3CCC21` (stereo partly specified) and `CCOC(=O)CCC1(C(=O)OCC)CCCCC1=O` (stereo unspecified) cannot be ordered by TGI: over 100 µM for the first, over 100 µM for the second.

`CCn1c(C)nn2c(=O)c3ccccc3nc2c1=O` and `Cc1nc2c(ccc3ncccc32)[nH]1` cannot be ordered by TGI: over 100 µM for the first, over 100 µM for the second.

`Cc1ccsc1C(=S)Nc1ccc(Cl)c(/C=N/OC(C)(C)C)c1` and `CN(C)C(=S)N=C(Nc1ccccc1)Nc1ccccc1` cannot be ordered by TGI: over 100 µM for the first, over 100 µM for the second.

First: CC(=O)[CH-]C(=O)c1ccccc1.CC(=O)[CH-]C(=O)c1ccccc1.CN(C)c1ccc([O-])cc1.CN(C)c1ccc([O-])cc1.Cl.[Ti+4]
Second: Nc1ccccc1S(=O)(=O)N(CC(=O)O)c1ccccc1
The TGI of the first is lower: 26.4 µM for the first, over 100 µM for the second.

`CC1(C)C(=O)/C=C\C(=O)C(C)(C)C2=CC=C(O2)C(C)(C)C(=O)/C=C\C(=O)C(C)(C)C2=CC=C1O2` and `COC(=O)/C(C#N)=C1\NC(=O)c2ccccc21` cannot be ordered by TGI: over 100 µM for the first, over 100 µM for the second.

`NC(=O)NO.O.O.O.O.O.O.O.O.O.O.O.[Ge].[Ge].[Ge].[Ge].[Ge].[O]=[Ge].[O]=[Ge].[O]=[Ge].[O]=[Ge].[O]=[Ge][OH]` and `CNS(=O)(=O)NNS(=O)(=O)c1ccccc1` cannot be ordered by TGI: over 100 µM for the first, over 100 µM for the second.

`OCC1=CC(NC2CC(CO)C(O)C(O)C2O)C(O)C(O)C1O` (stereo unspecified) and `CC1CCc2nc[nH]c(=O)c21` (stereo unspecified) cannot be ordered by TGI: over 100 µM for the first, over 100 µM for the second.

Compared with `NC1=NCCC1(c1ccccc1)c1ccccn1` (stereo unspecified), `CNC(=S)OCCC(C)CCCC(C)C` (stereo unspecified) is lower in TGI: over 100 µM for the first, 36.8 µM for the second.

First: CC(=O)OC1OC([C@@H]2c3cccc(O)c3C(=O)c3c(O)cc(C)cc32)C(O)C(O)C1O (stereo partly specified)
Second: C=CCO[C@H]1CO[C@H]2[C@@H]1OC[C@@H]2Oc1ccc(Nc2ccnc(Nc3ccc(O[C@H]4CO[C@H]5[C@@H]4OC[C@@H]5OCC=C)c(Cl)c3)n2)cc1Cl
The GI50 of the first is 53-fold lower: 0.0288 µM for the first, 1.54 µM for the second.

Going from `CN1CCCCC1CCN1c2ccccc2Sc2ccc(Cl)cc21` (stereo unspecified) to `FC(F)(F)c1cccc(Nc2nc(-c3ccccc3)nc3ncccc23)c1`, the GI50 rises from 2.1 µM to 5.63 µM (2.7-fold).

Going from `CC(=O)[CH-]C(=O)c1ccccc1.CC(=O)[CH-]C(=O)c1ccccc1.CN(C)c1ccc([O-])cc1.CN(C)c1ccc([O-])cc1.Cl.[Ti+4]` to `CC1CCc2nc[nH]c(=O)c21` (stereo unspecified), the GI50 rises from 14.8 µM to over 100 µM.

For `CCCCCCCCCCCCCC(=O)OC(/C=C/C(C)C)C(O)C(O)C(OC)C(=O)NC1CCCCN(C)C1=O` (stereo unspecified), the TGI was 7.93 µM and > 49 µM.

test system: K-562 leukemia; assay: NCI-60 cell line screen, 48 h

Compared with `COc1cc2c(c3oc4c(O)cccc4c(=O)c13)CC(C(C)(O)CO)O2` (stereo unspecified), `CC(=O)OC1OC([C@@H]2c3cccc(O)c3C(=O)c3c(O)cc(C)cc32)C(O)C(O)C1O` (stereo partly specified) is lower in TGI: over 100 µM for the first, 1.39 µM for the second.

`Cc1c(C(=O)C/C(=N/NC(=O)c2ccccc2O)C(=O)Nc2ccccc2C(C)C)[n+](=O)c2ccccc2n1[O-]` and `CCCC1C(=O)CCc2c(OC)ccc(OC)c21` (stereo unspecified) cannot be ordered by TGI: over 100 µM for the first, over 100 µM for the second.

`CCCCCCCCCCCC(=O)OCCOCCOCCOCCOCCOCc1ccccc1` showed a TGI of over 100 µM.

For `CC(=O)OC1OC([C@@H]2c3cccc(O)c3C(=O)c3c(O)cc(C)cc32)C(O)C(O)C1O` (stereo partly specified), the GI50 was 0.0216 µM.
